Measurements taken from paper PMC5715905, “Mechanistic insight into the assembly of the HerA–NurA helicase–nuclease DNA end resection complex” (Nucleic Acids Research, 2017).
One block for each molecule: values may come before it.

Experiments:
HerA = target: T1, HerA (Saccharolobus solfataricus, UniProt Q97WG8); test: native mass spectrometry titration; format: binding; details: 2 mM MgCl2, room temperature 1 h, 30 μM monomer, then 200 mM ammonium acetate, no dsDNA
T1 construct: recombinant, heat-treated, heparin and Q columns; homo-hexamer and homo-heptamer (heptamer dominant when apo)
T1 sequence (Q97WG8 1-500): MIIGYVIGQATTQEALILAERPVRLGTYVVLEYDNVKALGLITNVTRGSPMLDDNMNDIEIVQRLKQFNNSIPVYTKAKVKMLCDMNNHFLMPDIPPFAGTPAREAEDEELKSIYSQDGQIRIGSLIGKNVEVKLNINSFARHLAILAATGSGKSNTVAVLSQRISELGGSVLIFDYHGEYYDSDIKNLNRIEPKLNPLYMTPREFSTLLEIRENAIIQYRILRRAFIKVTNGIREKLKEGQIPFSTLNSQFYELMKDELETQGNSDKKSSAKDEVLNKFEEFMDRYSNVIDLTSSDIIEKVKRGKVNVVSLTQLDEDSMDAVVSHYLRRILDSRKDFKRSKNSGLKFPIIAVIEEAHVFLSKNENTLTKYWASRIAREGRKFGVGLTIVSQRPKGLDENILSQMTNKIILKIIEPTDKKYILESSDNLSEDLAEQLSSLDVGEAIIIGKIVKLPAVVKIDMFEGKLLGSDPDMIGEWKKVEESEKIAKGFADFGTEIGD

HerA–NurA = target: T2, HerA–NurA (Saccharolobus solfataricus, UniProt Q97WG8); test: native mass spectrometry; format: binding; details: nuclease-active complex with 25 bp dsDNA
T2 construct: purified recombinant HerA hexamer with NurA dimer; with DNA double-strand break repair nuclease NurA

[1] = target: the molecule itself; test: native MS; HerA incubated with NurA (2:3 molar ratio of monomers), no dsDNA, no nucleotide, 200 mM ammonium acetate
[2] = target: T3, HerA helicase, wild type (Sulfolobus solfataricus) (S. solfataricus, UniProt Q97WG8 1-500); test: as above; details: both partners purified
T3 construct: HerA helicase of the thermophilic archaeon Sulfolobus solfataricus; In solution a mix of hexamer and heptamer; the hexamer is the form found with NurA; No tag is named in the purification; Expression and constructs may be described in the supplementary materials and methods; also called apo-HerA; wild-type HerA; source: cells lysed by sonication, lysate heated at 70°C, purified (Heparin HP, …)
T3 sequence: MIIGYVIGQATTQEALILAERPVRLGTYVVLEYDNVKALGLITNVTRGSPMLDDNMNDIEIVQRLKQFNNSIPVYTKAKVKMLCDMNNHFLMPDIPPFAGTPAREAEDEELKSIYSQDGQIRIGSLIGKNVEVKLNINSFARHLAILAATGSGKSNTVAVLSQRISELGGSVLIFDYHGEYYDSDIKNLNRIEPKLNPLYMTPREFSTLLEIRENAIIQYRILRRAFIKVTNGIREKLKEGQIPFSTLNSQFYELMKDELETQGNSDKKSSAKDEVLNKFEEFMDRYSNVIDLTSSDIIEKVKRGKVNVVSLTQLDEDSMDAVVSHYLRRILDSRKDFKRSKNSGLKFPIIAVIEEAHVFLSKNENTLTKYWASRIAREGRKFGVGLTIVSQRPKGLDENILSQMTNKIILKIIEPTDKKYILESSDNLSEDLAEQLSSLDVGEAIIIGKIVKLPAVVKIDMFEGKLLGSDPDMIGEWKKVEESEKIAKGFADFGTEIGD

Molecule: Nc1ncnc2c1ncn2[C@@H]1O[C@H](COP(=O)(O)OP(=O)(O)O)[C@@H](O)[C@H]1O [ADP]
native mass spectrometry titration (HerA; 1 mM ADP spectrum): increase in hexameric HerA population was found when titrating HerA with increasing concentrations of ADP | native mass spectrometry (HerA–NurA; ATP-γ-S pre-bound): determined the number of ADP simultaneously bound to HerA–NurA–dsDNA

Molecule: Nc1ncnc2c1ncn2[C@@H]1O[C@H](COP(=O)(O)OP(=O)(O)OP(O)(O)=S)[C@@H](O)[C@H]1O [ATP-γ-S]
native mass spectrometry titration (HerA): the HerA hexamer binds all six ATP-γ-S simultaneously | native mass spectrometry (HerA–NurA; mixed with ADP): nuclease-active HerA–NurA–dsDNA complex was incubated with ATP-γ-S

binding result [2]: binds
B1: NurA nuclease, wild type (Sulfolobus solfataricus) (enzyme, S. solfataricus)
chain: MIRKIYDKLVESHNEIKNQIYNIANYLKQEIQDKVNEYWNEYVINHEQSETCKFVAIDGGSFGRPMRIGIVYAVGAESVIGDNKGVKTLSEDGQIGIFKPGNDAQERISLLMEALELSLALRDGSKGDYILMDGSLSKKIGNKVDIQQFSDEELKLIRNVDLNGIISIKDERKMRDLLMLLNQFLVSKIIEEYDGNVLWISKVSRGRDLFGTDYPDITVLELFTEKRGFSKLIIKNIDIEKISEIPEIEVLRKMEYTTFYTRLDNGKRVIRVDIVGRVDEKIVKEIMDRLSGVSIKGYPFPLLKAHMDVRFSAMDREKIIKLVGSKLHKDIEWWPSQFY
notes: NurA nuclease of the thermophilic archaeon Sulfolobus solfataricus; Homodimer; No tag is named in the purification; also called NurA^WT; NurA dimer; source: cells lysed by sonication, lysate heated at 70°C, purified (Heparin HP, HiTrap Q HP)
stoichiometry N [1]: 2
